Test results reported in patent US9629828B2, “Methods of treating traveler's diarrhea and hepatic encephalopathy” (priority 2008, dated 2017).
“And” between values parts separate entries of the source, which are not always exact repeats. Equal values may be shown once. “Also recorded” adds a separate entry of the source. Marks after values point to notes of the source that are not given here.

Legend:
[1] = target: P-glycoprotein (Homo sapiens, UniProt P08183); assay: In vitro P-glycoprotein substrate study (efflux ratio, verapamil); assay type: in vitro ADME
Source text: Therefore, no clinically significant interactions with other drugs affected by P-glycoprotein are anticipated.

[2] = tested on: patients with HE; settings: rifaximin 1200 mg/day, neomycin 3 g/day; cited from earlier work
[3] = tested on: adult subjects with travelers' diarrhea; assay: Travelers' diarrhea Study 1: clinical response (TLUS, clinical cure); assay type: in vivo, human
Protocol: One study was conducted at clinical sites in Mexico, Guatemala, and Kenya (Study 1). The other study was conducted in Mexico, Guatemala, Peru, and India (Study 2). Stool specimens were collected before treatment and 1 to 3 days following the end of treatment to identify enteric pathogens. The predominant pathogen in both studies was Escherichia coli.
The clinical efficacy of rifaximin was assessed by the time to return to normal, formed stools and resolution of symptoms. The primary efficacy endpoint was time to last unformed stool (TLUS) which was defined as the time to the last unformed stool passed, after which clinical cure was declared. […] More patients treated with rifaximin were classified as clinical cures than were those in the placebo group.

[4] = tested on: patients with HE; assay: Rifaximin 1200 mg/day: effect on blood ammonia and HE grade (50 patients); assay type: in vivo, human; settings: for effect on HE grade: 1200 mg/day; for effect on blood ammonia: 1200 mg/day for 5-10 days
Source text: Correlation between ammonia reduction over time and HE was examined.
While discrete blood ammonia concentrations may be variable, serial measurements in individual patients have been associated with HE severity.

[5] = tested on: subjects in remission from hepatic encephalopathy (HE); assay: First study: Conn score (time to any increase, change from baseline); assay type: in vivo, human; settings: for Event probability (increase in Conn score during the treatment interval) / Probability of no increase in Conn score: Kaplan-Meier; for Event probability (increase in Conn score during the treatment interval) / Probability of no increase in Conn score / Cumulative number of events (increase in Conn score) / Number of events (increase in Conn score): ITT, N = 140
Source text: The scale used in the Conn scoring system is provided below. • Grade 0=No personality or behavioral abnormality detected • Grade 1=Trivial lack of awareness, euphoria or anxiety; shortened attention span; impairment of addition or subtraction • Grade 2=Lethargy; disorientation for time; obvious personality change; inappropriate behavior • Grade 3=Somnolence to semi-stupor, responsive to stimuli; confused; gross disorientation; bizarre behavior • Grade 4=Coma; unable to test mental state
Change in mental status was measured by the Conn score (also known as the West Haven score). The Conn score has been widely used as a measure of mental state in HE studies and is based on the criteria of Parsons-Smith as modified by Conn. The scale used in the Conn scoring system is described above.
Subjects who discontinued prior to experiencing an increase in Conn score and prior to completion of the 6-month treatment period were censored at the time of discontinuation.

[6] = tested on: dogs; settings: dog, in vivo
Protocol: However, plasma drug levels were not measured in these studies. […] The maximum plasma AUC0-8 hr values from the 6 month rat and 9 month dog toxicity studies (range: 42-127 ng·h/mL) was lower than the maximum plasma AUC0-8 hr values in cirrhotic patients (range: 19-306 ng·h/mL).

[7] = tested on: rat hepatocyte; assay type: cell-based
[8] = tested on: subjects in remission from hepatic encephalopathy (HE); assay: First study: HE-related, HE-caused and all-cause hospitalization; assay type: in vivo, human; settings: for Probability of no HE-related hospitalization: Kaplan-Meier; for Probability of no HE-related hospitalization / Cumulative number of events (HE-related hospitalization) / Event probability (HE-related hospitalization during the treatment interval) / Number of events (HE-related hospitalization): ITT, N = 140
Source text: The analysis of time to first HE-related hospitalization was based on the comparison of time to hospitalization between rifaximin and placebo.
FIG. 9 illustrates time to first HE-related hospitalization (e.g., hospitalization directly resulting from HE or hospitalization caused by HE) by treatment group in the ITT population in the first study. Table 19 presents estimates of the proportions of subjects who had their first HE-related hospitalization over the course of the Treatment Period and results of statistical analyses. Subjects who discontinued prior to hospitalization due to HE and prior to completion of the 6-month treatment period were censored at the time of discontinuation. […] This hazard ratio represents a 50% reduction, when compared with placebo, in the risk of hospitalization due to HE during the 6-month treatment period.
FIG. 5 illustrates time to first HE-caused hospitalizations by treatment group in the first study.

[9] = tested on: subjects with a history of recurrent, overt, episodic HE; assay: Second study: hospitalization rates; assay type: in vivo, human
Source text: Normalizing for subject exposure, this represents a hospitalization rate of 0.60 event/PEY. A total of 59 were hospitalized due HE episodes (e.g., HE-caused). Normalizing for subject exposure, this represents an HE-caused hospitalization rate of 0.29 event/PEY. […] All subjects were capable of worsening over time, and 24/266 subjects (9.0%) did so by 1 or 2 grades.

[10] = treatment interval 0 to <28 days
[11] = treatment interval 28 to <56 days
[12] = treatment interval 56 to <84 days
[13] = treatment interval 84 to <140 days
[14] = treatment interval 140 to <168 days

P-glycoprotein, sequence (P08183 whole entry): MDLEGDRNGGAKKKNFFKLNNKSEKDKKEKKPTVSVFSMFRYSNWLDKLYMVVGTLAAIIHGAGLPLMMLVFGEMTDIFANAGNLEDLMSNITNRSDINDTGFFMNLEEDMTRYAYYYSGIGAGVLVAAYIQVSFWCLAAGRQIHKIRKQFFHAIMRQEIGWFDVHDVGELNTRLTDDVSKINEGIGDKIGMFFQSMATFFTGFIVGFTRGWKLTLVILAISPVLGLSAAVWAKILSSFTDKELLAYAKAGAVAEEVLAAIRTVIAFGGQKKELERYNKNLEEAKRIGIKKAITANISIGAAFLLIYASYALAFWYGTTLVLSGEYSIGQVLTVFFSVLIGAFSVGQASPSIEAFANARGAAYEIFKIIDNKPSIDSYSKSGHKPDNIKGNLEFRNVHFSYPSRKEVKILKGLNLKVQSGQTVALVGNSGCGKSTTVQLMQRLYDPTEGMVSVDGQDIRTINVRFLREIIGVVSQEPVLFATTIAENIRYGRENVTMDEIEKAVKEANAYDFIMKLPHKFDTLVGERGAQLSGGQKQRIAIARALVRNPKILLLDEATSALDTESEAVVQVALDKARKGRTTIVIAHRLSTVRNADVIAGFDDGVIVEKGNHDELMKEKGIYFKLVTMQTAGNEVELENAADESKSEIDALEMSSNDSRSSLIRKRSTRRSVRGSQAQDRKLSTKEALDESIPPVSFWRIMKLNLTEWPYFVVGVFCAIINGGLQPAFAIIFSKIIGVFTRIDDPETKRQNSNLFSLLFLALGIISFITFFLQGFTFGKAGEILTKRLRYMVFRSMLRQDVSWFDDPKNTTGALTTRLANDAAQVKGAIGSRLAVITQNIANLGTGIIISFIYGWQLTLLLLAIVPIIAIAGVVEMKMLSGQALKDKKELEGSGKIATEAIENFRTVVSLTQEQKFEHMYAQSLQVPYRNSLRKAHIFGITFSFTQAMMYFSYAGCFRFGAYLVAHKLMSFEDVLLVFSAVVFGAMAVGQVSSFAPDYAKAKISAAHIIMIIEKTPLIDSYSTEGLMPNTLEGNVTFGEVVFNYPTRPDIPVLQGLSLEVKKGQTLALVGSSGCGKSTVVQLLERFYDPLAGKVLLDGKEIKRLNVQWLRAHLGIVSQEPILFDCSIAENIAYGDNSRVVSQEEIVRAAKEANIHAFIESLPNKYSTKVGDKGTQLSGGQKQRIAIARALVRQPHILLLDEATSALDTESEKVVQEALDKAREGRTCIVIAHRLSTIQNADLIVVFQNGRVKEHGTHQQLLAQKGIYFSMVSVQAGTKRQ

CO[C@H]1/C=C/O[C@@]2(C)Oc3c(C)c(O)c4c(O)c(c5c(nc6cc(C)ccn65)c4c3C2=O)NC(=O)/C(C)=C\C=C\[C@H](C)[C@H](O)[C@@H](C)[C@@H](O)[C@@H](C)[C@H](OC(C)=O)[C@@H]1C [rifaximin, (2S,16Z,18E,20S,21S,22R,23R,24R,25 S,26S,27S,28E)-5,6,21,23,25-pentahydroxy-27-methoxy-2,4,11,16,20,22,24,26-octamethyl-2,7-(epoxypentadeca-[1,11,13]trienimino)benzofuro[4,5-e]pyrido[1,2-á]-benzimidazole-1,15(2H)-dione,25-acetate]
P-glycoprotein substrate [1]: substrate of P-glycoprotein; also recorded: substrate for P-glycoprotein
efficacy in patients with HE [2]: comparable efficacy
Median TLUS ([3]; 200 mg TID 3 days, ITT n = 125): 32.5 h
Difference in rates of clinical cure vs placebo ([3]; ITT): 18.7^b
Clinical cure ([3]; ITT n = 125): 99 (79.2) n (%)
effect on HE grade [4]: significant improvement in overall HE grade
effect on blood ammonia [4]: statistically significant blood ammonia reduction; also recorded: lowers ammonia levels
effect on blood ammonia ([4]; listed as Rifaximin): decreased blood ammonia
effect on HE grade ([4]; listed as Rifaximin): improvement in HE grade
Event probability (increase in Conn score during the treatment interval) [5, 10]: 0.012
Probability of no increase in Conn score [5, 10]: 1.0000
Event probability (increase in Conn score during the treatment interval) [5, 11]: 0.04
Probability of no increase in Conn score [5, 11]: 0.8777
Event probability (increase in Conn score during the treatment interval) [5, 12]: 0.08
Probability of no increase in Conn score [5, 12]: 0.8407
Event probability (increase in Conn score during the treatment interval) [5, 13]: 0.05
Probability of no increase in Conn score [5, 13]: 0.7713
Event probability (increase in Conn score during the treatment interval) [5, 14]: 0
Probability of no increase in Conn score [5, 14]: 0.7302
Event probability (increase in Conn score during the treatment interval) ([5]; treatment interval ≧168 days): 0.03
Probability of no increase in Conn score ([5]; treatment interval ≧168 days): 0.7302
Survival ([5]; any increase in Conn score, days r10-r15 as E1001): 1.0000 and 0.8777 and 0.8407 and 0.7713 and 0.7302
subjects with Conn score changes of −1 or no change ([5]; baseline to end of treatment): 77.1%
prevention of worsening of Conn score, times versus placebo ([5]; in vivo): 2.46 times
reduction in risk of first worsening in Conn Score ([5]; in vivo): 54%
subjects with increases in Conn score ([5]; in vivo): 37 of 140
time to first increase in Conn scores vs placebo (FIG. 4) ([5]; in vivo): increased time to the first increase in Conn scores
Cumulative number of events (increase in Conn score) [5, 10]: 17
Number of events (increase in Conn score) [5, 10]: 17
Cumulative number of events (increase in Conn score) [5, 11]: 22
Number of events (increase in Conn score) [5, 11]: 5
Cumulative number of events (increase in Conn score) [5, 12]: 31
Number of events (increase in Conn score) [5, 12]: 9
Cumulative number of events (increase in Conn score) [5, 13]: 36
Number of events (increase in Conn score) [5, 13]: 5
Cumulative number of events (increase in Conn score) [5, 14]: 36
Number of events (increase in Conn score) [5, 14]: 0
Cumulative number of events (increase in Conn score) ([5]; treatment interval ≧168 days): 37
Number of events (increase in Conn score) ([5]; treatment interval ≧168 days): 1
toxic effects [6]: negligible toxic effects
genotoxicity [7]: not genotoxic
reduction in risk of HE-caused hospitalization vs placebo ([8]; 6-month treatment): 56%
reduction in risk of HE-related hospitalization vs placebo ([8]; 6-month treatment): 50%
Probability of no HE-related hospitalization [8, 10]: 1.0000
Probability of no HE-related hospitalization [8, 11]: 0.9711
Probability of no HE-related hospitalization [8, 12]: 0.9411
Probability of no HE-related hospitalization [8, 13]: 0.0904
Probability of no HE-related hospitalization [8, 14]: 0.8665
Probability of no HE-related hospitalization ([8]; treatment interval ≧168 days): 0.8475
Survival ([8]; Table 4, N = 140, days r11-r21 as E901): 1.0000 and 0.9564 and 0.9258 and 0.8848 and 0.8403 and 0.8108
Survival ([8]; Table 17, days r10-r15 as E2201): 1.0000 and 0.9711 and 0.9411 and 0.9094 and 0.8665 and 0.8475
HE-caused hospitalization rate ([8]; first study): 0.30 events/PEY
HE-related hospitalization rate lower than placebo ([8]; in vivo): 51%
reduction in risk of all-cause hospitalization vs placebo ([8]; in vivo): 30%
subjects with HE-caused hospitalizations ([8]; in vivo): 15 of 140
subjects with all-cause hospitalization ([8]; in vivo): 46 of 140
time to first HE related hospitalization vs placebo (FIG. 3) ([8]; in vivo): increased time to hospitalization
HE-related hospitalization rate ([8]; normalized to exposure): 0.38 event/PEY
Cumulative number of events (HE-related hospitalization) [8, 10]: 4
Event probability (HE-related hospitalization during the treatment interval) [8, 10]: 0.03
Number of events (HE-related hospitalization) [8, 10]: 4
Cumulative number of events (HE-related hospitalization) [8, 11]: 8
Event probability (HE-related hospitalization during the treatment interval) [8, 11]: 0.03
Number of events (HE-related hospitalization) [8, 11]: 4
Cumulative number of events (HE-related hospitalization) [8, 12]: 12
Event probability (HE-related hospitalization during the treatment interval) [8, 12]: 0.03
Number of events (HE-related hospitalization) [8, 12]: 4
Cumulative number of events (HE-related hospitalization) [8, 13]: 17
Event probability (HE-related hospitalization during the treatment interval) [8, 13]: 0.05
Number of events (HE-related hospitalization) [8, 13]: 5
Cumulative number of events (HE-related hospitalization) [8, 14]: 19
Event probability (HE-related hospitalization during the treatment interval) [8, 14]: 0.02
Number of events (HE-related hospitalization) [8, 14]: 2
Cumulative number of events (HE-related hospitalization) ([8]; treatment interval ≧168 days): 19
Event probability (HE-related hospitalization during the treatment interval) ([8]; treatment interval ≧168 days): 0
Number of events (HE-related hospitalization) ([8]; treatment interval ≧168 days): 0
subjects hospitalized due HE episodes ([9]; in vivo): 59 subjects
subjects hospitalized for any cause ([9]; in vivo): 133 of 266
HE-caused hospitalization rate ([9]; second study): 0.29 event/PEY
